In US10611732B2, “HIV replication inhibiting pyrimidines” (Janssen Pharmaceutica NV, priority 2001, dated 2020):

Key:
HIV = assay: microbe, parasite or virus in culture; settings: for IC50: Human immunodeficiency virus 1, MT4, read-out: pIC50 (−log IC50), HIV-infected MT-4 cells (converted); for IC50 / pIC50 (−log IC50): dose achieving 50% protection, MTT, OD 540 nm; for pSI (pCC50-pIC50): selectivity index, ratio of CC50 to IC50, as log difference; for pIC50 (−log IC50): HIV-infected MT-4 cells
Description: (§1) A rapid, sensitive and automated assay procedure was used for the in vitro evaluation of anti-HIV agents. An […] T4-cell line, MT-4, which was previously shown (Koyanagi et al., Int. J Cancer, 36, 445-451, 1985) to be highly susceptible to and permissive for HIV infection, served as the target cell line. Inhibition of the HIV-induced cytopathic effect was used as the end point. The viability of both HIV- and mock-infected cells was assessed spectrophotometrically via the in situ reduction of 3-(4,5-dimethylthiazol-2-yl)-2,5-diphenyltetrazolium bromide (MTT). The 50% cytotoxic concentration (CC50 in M) was defined as the concentration of compound that reduced the absorbance of the mock-infected control sample by 50%. The percent protection achieved by the compound in HIV-infected cells was calculated by the following formula:
(§2) [formula] whereby (ODT)HIV is the optical density measured with a given concentration of the test compound in HIV-infected cells; (ODC)HIV is the optical density measured for the control untreated HIV-infected cells; (ODC)MOCK is the optical density measured for the control untreated mock-infected cells; all optical density values were determined at 540 nm. The dose achieving 50% protection according to the above formula was defined as the 50% inhibitory concentration (IC50 in M). The ratio of CC50 to IC50 was defined as the selectivity index (SI).
(§3) Table 6 lists the pIC50 (−log IC50), pCC50 (−log CC50) and pSI (pCC50-pIC50) values for the compounds of formula (I).

[1] = cytotoxicity in mock-infected MT-4 cells (MTT); settings: human, mock-infected MT-4 cells
Description: as §1, §2, §3

mock-infected MT-4 cells = assay: cytotoxicity in mock-infected MT-4 cells (MTT)
Description: as §1, §2, §3

SMILES	melting point	IC50 (HIV)	pSI (pCC50-pIC50) (HIV)	CC50 [1]	pIC50 (−log IC50) (HIV)	pCC50 (−log CC50) (mock-infected MT-4 cells)
Cc1cc(/C=C\Cl)cc(C)c1Nc1ccnc(Nc2ccc(C#N)cc2)n1	250 °C					
Cc1cc(C=C(Br)Br)cc(C)c1Nc1ccnc(Nc2ccc(C#N)cc2)n1	223 °C					
CCCCN(C)C(=O)/C=C/c1cc(C)c(Oc2ccnc(Nc3ccc(C#N)cc3)n2)c(C)c1	212 °C					
Cc1ccc(N(C)C)c(C)c1Nc1ccnc(Nc2ccc(C#N)cc2)n1	132 °C					
Cc1cc(/C=C/c2cccnc2)cc(C)c1Nc1ccnc(Nc2ccc(C#N)cc2)n1	120 °C					
Cc1cc(C(=O)CC#N)cc(C)c1Nc1ccnc(Nc2ccc(C#N)cc2)n1	150 °C					
CCOCc1ccc(Oc2ccnc(Nc3ccc(C#N)cc3)n2)c(C)c1 [Compound 105]	140 °C	63.1 nM	<−3.2			
Cc1cc(/C=C(/C#N)C(=O)C(C)(C)C)cc(C)c1Nc1ccnc(Nc2ccc(C#N)cc2)n1 [Compound 106]	193 °C	20 nM	−2.5			
Cc1cc(/C=C(/F)C#N)cc(C)c1Oc1ccnc(Nc2ccc(C#N)cc2)n1 [Compound 110]	254 °C	2.51 nM	−4.3	50100 nM		
Cc1cc(/C=C/C(=O)N(C)C)cc(C)c1Nc1ccnc(Nc2ccc(C#N)cc2)n1 [Compound 112]	> 264 °C	0.794 nM	−4.2			
Cc1cc(/C=C/C(=O)N(C)CCC#N)cc(C)c1Nc1ccnc(Nc2ccc(C#N)cc2)n1 [Compound 114]	168 °C	2.51 nM	−3.5			
Cc1cc(-c2ccc(C#N)o2)cc(C)c1Nc1ccnc(Nc2ccc(C#N)cc2)n1 [Compound 126]	> 260 °C	3.98 nM	−3.5			
CC(C#N)=Cc1ccc(Oc2ccnc(Nc3ccc(C#N)cc3)n2)c(C)c1 [Compound 231]			<−5.2		9.2	<4.0 M
CC(=CC#N)c1ccc(Oc2ccnc(Nc3ccc(C#N)cc3)n2)c(C)c1 [Compound 232]			<−4.4		8.4	<4.0 M
CC(C#N)=Cc1cc(C)c(Nc2ccnc(Nc3ccc(C#N)cc3)n2)c(Cl)c1 [Compound 233]			−3.6		9.3	5.7 M
Cc1cc(CCC#N)ccc1Oc1ccnc(Nc2ccc(C#N)cc2)n1 [Compound 234]			<−4.7		8.7	<4.0 M
Cc1cc(C(C)CC#N)ccc1Oc1ccnc(Nc2ccc(C#N)cc2)n1 (stereo not shown) [Compound 235]			<−5.3		9.3	<4.0 M
Cc1cc(CC(C)C#N)ccc1Oc1ccnc(Nc2ccc(C#N)cc2)n1 (stereo not shown) [Compound 236]			<−4.8		8.8	<4.0 M
Cc1cc(/C=C/C#N)ccc1Nc1ccnc(Nc2ccc(C#N)cc2)n1 [Compound 237]			<−4.9		8.9	<4.0 M
Cc1cc(CC#N)cc(Cl)c1Nc1ccnc(Nc2ccc(C#N)cc2)n1 [Compound 238]			−3.9		9.5	5.6 M
Cc1cc(/C=C/C#N)cc(-c2ccco2)c1Nc1ccnc(Nc2ccc(C#N)cc2)n1 [Compound 239]			−3.9		8.9	5 M
Cc1cc(CN(C)CCC#N)cc(Br)c1Nc1ccnc(Nc2ccc(C#N)cc2)n1 [Compound 241]			−4.1		9.4	5.3 M
N#C/C=C/c1ccc(Nc2ccnc(Nc3ccc(C#N)cc3)n2)c(Br)c1 [Compound 244]			−5.2		9.2	4 M
COc1cc(/C=C/C#N)ccc1Nc1ccnc(Nc2ccc(C#N)cc2)n1 [Compound 245]			−4.8		8.8	4 M
CC(C#N)=Cc1cc(C)c(Nc2ccnc(Nc3ccc(C#N)cc3)n2)c(Br)c1 [Compound 247]			−3		9.2	6.2 M
Cc1cc(/C=C/C#N)cc(Br)c1Nc1ccnc(Nc2ccc(C#N)cc2)n1 [Compound 248]			−3.5		9.3	5.7 M
COc1cc(C=C(C)C#N)ccc1Nc1ccnc(Nc2ccc(C#N)cc2)n1 [Compound 249]			−4.5		8.5	4 M
COc1cc(CCC#N)ccc1Nc1ccnc(Nc2ccc(C#N)cc2)n1 [Compound 251]			−3.9		8.9	5 M
